Measurements published in US11932623B2, “Uracil compounds and use thereof” (Sumitomo Chemical Company, Limited, priority 2018, dated 2024).

Experiments:
Format in all cases: in vivo
[1] = tested on: Ivyleaf morning glory (Ipomoea hederacea); assay: Test Example 1: post-emergence foliar spray pot test, weed control efficacy; settings: for efficacy on controlling weeds against Ivyleaf morning glory (Ipomoea hederacea), in words: 20 or 10 gai/ha; for control efficacy, Ipomoea hederacea: foliar spray 204 L/ha on plants grown 15 days, assessed after 11 days in greenhouse, scale 0 to 100 (all dead)
Excerpt: (§1) In the Test Examples as described below, for the assessment of weeds-controlling efficacy, the efficacy is defined as “0” if the condition of budding or growth of test pants in the treated area indicates little or no difference compared to that of the untreated area at the time of the investigation.
(§2) The “untreated group” represents a group where a similar treatment procedure to that of the treated group except not using the compound A is done.
(§3) A plastic pot was filled with soil. Ivyleaf morning glory (Ipomoea hederacea), Redroot pigweed (Amaranthus retroflexus) and corn were seeded to the plastic pot, and the plants are grown in a greenhouse for 15 days. A prescribed amount of the formulation prepared by the method of the formulation example 1 was diluted with water containing 1% of Agridex (registered trademark) to obtain a diluted solution. The diluted solution was uniformly sprayed at a rate of 204 L/ha from the upper side of the plants such that the applied dose of the compound A was made to 20 gai/ha or 10 gai/ha. Thereafter, the plants were grown in a greenhouse for 11 days, and the control efficacies were assessed by the above-mentioned method. The results are shown in [Table 1].
(§4) The comparative test was conducted by using the compound B in place of the compound A according to a similar method to that described in the Test example 1.

[2] = tested on: Redroot pigweed (Amaranthus retroflexus); assay: as above; settings: for efficacy on controlling weeds against Redroot pigweed (Amaranthus retroflexus), in words: 20 or 10 gai/ha; for control efficacy, Amaranthus retroflexus: foliar spray 204 L/ha on plants grown 15 days, assessed after 11 days in greenhouse
Excerpt: as §1, §2, §3, §4

corn = assay: Test Example 1: post-emergence foliar spray pot test, safety against useful plants (phytotoxicity); settings: for Corn (phytotoxicity score): foliar spray 204 L/ha on plants grown 15 days, assessed after 11 days in greenhouse
Excerpt: Further, Test Examples are used to show an efficacy of the compound A on controlling weeds and safety against useful plants (phytotoxicity)
as §1, §2, §3, §4

[3] = applied dose 10 gai/ha, scale 0 to 100 (all dead)
[4] = applied dose 20 gai/ha, scale 0 (no difference to untreated) to 100 (all dead)

With `CCOC(=O)COc1ncccc1Oc1cc(-n2c(=O)cc(C(F)(F)F)n(C)c2=O)c(Cl)cc1Cl` [Compound A] the “efficacy on controlling weeds against Ivyleaf morning glory (Ipomoea hederacea), in words” value [1] was “high efficacies”, the “control efficacy, Ipomoea hederacea” value ([1]; applied dose 10 gai/ha) was 100 and the “control efficacy, Ipomoea hederacea” value ([1]; applied dose 20 gai/ha) was 100. For the same compound, the “efficacy on controlling weeds against Redroot pigweed (Amaranthus retroflexus), in words” value [2] was “high efficacies”, the “control efficacy, Amaranthus retroflexus” value [2, 3] was 100 and the “control efficacy, Amaranthus retroflexus” value [2, 4] was 100. For the same compound, the “phytotoxicity against corn, in words” value (corn; in vivo) was “low phytotoxicity”.

In the case of `CCOC(=O)COc1ncccc1Oc1cc(-n2c(=O)cc(C(F)(F)F)n(C)c2=O)c(F)cc1Cl` [Compound B], the “efficacy on controlling weeds against Ivyleaf morning glory (Ipomoea hederacea), in words” value [1] is reported as “high efficacies”, the “control efficacy, Ipomoea hederacea” value ([1]; applied dose 10 gai/ha) is reported as 100 and the “control efficacy, Ipomoea hederacea” value ([1]; applied dose 20 gai/ha) is reported as 100. For the same compound, the “efficacy on controlling weeds against Redroot pigweed (Amaranthus retroflexus), in words” value [2] was “high efficacies”, the “control efficacy, Amaranthus retroflexus” value [2, 3] was 100 and the “control efficacy, Amaranthus retroflexus” value [2, 4] was 100. The “phytotoxicity against corn, in words” value (corn; 20 or 10 gai/ha) was “high phytotoxicity”, the “Corn (phytotoxicity score)” value (corn; [3]) was 100 and the “Corn (phytotoxicity score)” value (corn; [4]) was 100.
